From PMC9928118, “Funneling modulatory peptide design with generative models: Discovery and characterization of disruptors of calcineurin protein-protein interactions” (PLOS Computational Biology, 2023)

Tested on: GST-tagged Cn
Experiment: PEPperPRINT peptide microarray binding assay with GST-tagged Cn
In short: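 Qualitative binding: peptides printed on a PEPperPRINT microarray were incubated overnight at 4 °C with 1 mg/ml GST-tagged Cn, then detected with Alexa-Fluor 647 anti-GST antibody. Log fluorescence was baseline-corrected, averaged over duplicate spots, Z-normalized and averaged across five repeats.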

[1] = GST-tagged Cn, max over the spots named in Location on chip
[2] = GST-tagged Cn, mean over the spots named in Location on chip
[3] = GST-tagged Cn, max over the chip locations
[4] = GST-tagged Cn, mean over the chip locations
[5] = max over the spots listed under Location on chip
[6] = mean over the spots listed under Location on chip
[7] = GST-tagged Cn, max over the spots on the chip (two locations)
[8] = GST-tagged Cn, mean over the spots on the chip (two locations)
[9] = max over the chip locations listed for the peptide (two spots)
[10] = mean over the chip locations listed for the peptide (two spots)
[11] = GST-tagged Cn, max over the chip spots listed under Location on chip
[12] = GST-tagged Cn, mean over the chip spots listed under Location on chip

## STSSLPTFSFSSPLPS [SeqRBMlowT_3929]
[1]
  Chip Fluorescence (max): 1.5
[2]
  Chip Fluorescence (mean): -1.084

## PALYDNALGIESFTLS [SeqCRZ1_Penicillium_arizonense]
[1]
  Chip Fluorescence (max): 1.355
[2]
  Chip Fluorescence (mean): 0.6125

## THTKISSFRGDAEPAP [Seqshuffled_9494]
[3]
  Chip Fluorescence (max): 0.1716
[4]
  Chip Fluorescence (mean): -0.4714

## TFWMNPQFKINLEEED [SeqCAPN11_Salmo_salar]
[5]
  Chip Fluorescence (max): 3.077
[6]
  Chip Fluorescence (mean): 0.4499

## QKRYGETFPPVKTGSD [Seqshuffled_1489]
[7]
  Chip Fluorescence (max): 1.242
[8]
  Chip Fluorescence (mean): -0.2303

## KERDVNYYIIHPVGSA [Seqshuffled_9799]
[9]
  Chip Fluorescence (max): 3.906
[10]
  Chip Fluorescence (mean): 0.5831

## TFWTNPQYKITLEEPD [SeqRBMlowT_54]
[7]
  Chip Fluorescence (max): 1.133
[8]
  Chip Fluorescence (mean): -0.8126

## LKDEFSDVRLNIISNL [SeqRBMlowT_1878]
[11]
  Chip Fluorescence (max): 0.7069
[12]
  Chip Fluorescence (mean): 0.04327

## QTEDQPGIIVHTAMLP [SeqRCN1_Bactrocera_dorsalis]
[11]
  Chip Fluorescence (max): 0.5479
[12]
  Chip Fluorescence (mean): -0.783

## RCISAYKLDSVMMDPS [Seqrandom_9957]
[9]
  Chip Fluorescence (max): 3.463
[10]
  Chip Fluorescence (mean): 0.1448

## LTWTSNDMKLHLSGVS [Seqshuffled_9827]
[11]
  Chip Fluorescence (max): 0.7935
[12]
  Chip Fluorescence (mean): -0.8344

## SVDKHPRVYVATSRED [SeqRBM_4749]
[9]
  Chip Fluorescence (max): 4.793
[10]
  Chip Fluorescence (mean): 0.8161

## KAYMCPFMSFIDGGQR [SeqRBMlowT_3665]
[5]
  Chip Fluorescence (max): 2.726
[6]
  Chip Fluorescence (mean): 0.3874

## TDHMNPQITISSKEND [SeqRBM_3457]
[7]
  Chip Fluorescence (max): 1.164
[8]
  Chip Fluorescence (mean): 0.5231

## DSLYQEVLGIRSFSLS [SeqRBM_8930]
[11]
  Chip Fluorescence (max): 0.6781
[12]
  Chip Fluorescence (mean): 0.06214

## KAYMNPFMQFIDGGRR [SeqRBMlowT_560]
[9]
  Chip Fluorescence (max): 4.3098
[10]
  Chip Fluorescence (mean): 0.3269

## RQPGTAPANLVGHKKQ [SeqRBM_2906]
[11]
  Chip Fluorescence (max): 0.7504
[12]
  Chip Fluorescence (mean): -0.5221

## TFWTNPQFKVKLEEPD [SeqRBMlowT_221]
[11]
  Chip Fluorescence (max): 0.5686
[12]
  Chip Fluorescence (mean): -0.7828

## HSKLIPKLSIQSPVHH [SeqRBMlowT_822]
[3]
  Chip Fluorescence (max): 0.1809
[4]
  Chip Fluorescence (mean): -0.5839

## SPSNPPEIIISSREDN [SeqKCNN2_Mus_musculus]
[5]
  Chip Fluorescence (max): 3.195
[6]
  Chip Fluorescence (mean): 0.7018

## TFWTNPQYRITVTDPD [SeqRBMlowT_65]
[3]
  Chip Fluorescence (max): 0.2441
[4]
  Chip Fluorescence (mean): -1.026

## RNPGQALLELRGHSAS [SeqRBMlowT_6125]
[11]
  Chip Fluorescence (max): 0.4069
[12]
  Chip Fluorescence (mean): -0.3301

## SQFDQVHYGLHIATFH [Seqshuffled_4372]
[7]
  Chip Fluorescence (max): 1.111
[8]
  Chip Fluorescence (mean): 0.4902

## TFWTNPQYRIKLTDAD [SeqRBMlowT_4313]
[11]
  Chip Fluorescence (max): 0.4524
[12]
  Chip Fluorescence (mean): -0.5715

## NVSSSPRVTLKIPQHR [SeqRBM_7185]
[7]
  Chip Fluorescence (max): 1.102
[8]
  Chip Fluorescence (mean): 0.1459

## TFWTNPQFNVTLSEAD [SeqRBM_9395]
[5]
  Chip Fluorescence (max): 2.777
[6]
  Chip Fluorescence (mean): 0.5231

## DSLKIPQVRMRIDSAT [SeqRBM_3711]
[3]
  Chip Fluorescence (max): -0.1629
[4]
  Chip Fluorescence (mean): -1.069

## KDMLIPRPSSQDSGAY [SeqRBM_5587]
[1]
  Chip Fluorescence (max): 1.626
[2]
  Chip Fluorescence (mean): -0.4019

## TFWINPQFKVRLDEID [SeqCAPN11_Boiga_irregularis]
[1]
  Chip Fluorescence (max): 1.765
[2]
  Chip Fluorescence (mean): 0.8018

## GVPETPSRPVDPTAPS [SeqRBM_5086]
[3]
  Chip Fluorescence (max): -0.4316
[4]
  Chip Fluorescence (mean): -1.3551

## TFWTNPQYRVKLEDPD [SeqRBMlowT_28]
[1]
  Chip Fluorescence (max): 1.52
[2]
  Chip Fluorescence (mean): 0.4012

## KAYMCPFMQFIEGGRR [SeqRBMlowT_535]
[11]
  Chip Fluorescence (max): 0.9778
[12]
  Chip Fluorescence (mean): -1.603

## AFLATPSIIIHPPEGP [SeqRBM_2675]
[11]
  Chip Fluorescence (max): 0.739
[12]
  Chip Fluorescence (mean): -0.5185

## HSKLIPKLSISSPVHH [SeqRBMlowT_1731]
[11]
  Chip Fluorescence (max): 0.5936
[12]
  Chip Fluorescence (mean): -1.087

## RMMEPQNRGFKGCTES [Seqshuffled_509]
[9]
  Chip Fluorescence (max): 6.671
[10]
  Chip Fluorescence (mean): 1.748

## RAYINPFMTFIDGGHR [SeqRBMlowT_1519]
[9]
  Chip Fluorescence (max): 3.708
[10]
  Chip Fluorescence (mean): 0.9074

## TGTLCKSGMLVSTRMS [SeqRBM_1323]
[11]
  Chip Fluorescence (max): 0.8817
[12]
  Chip Fluorescence (mean): -0.07521

## FSFMCPDSNTNHDQVS [SeqRBM_6801]
[11]
  Chip Fluorescence (max): 0.3774
[12]
  Chip Fluorescence (mean): -0.7887

## AQSSQPPISTKYDARG [Seqshuffled_9482]
[11]
  Chip Fluorescence (max): 0.6167
[12]
  Chip Fluorescence (mean): -0.6535

## TFWTNPQFRVTLTEPD [SeqRBMlowT_9005]
[9]
  Chip Fluorescence (max): 5.558
[10]
  Chip Fluorescence (mean): 0.117

## TFWMNPQYMIKLEEED [SeqCAPN11_Monodelphis_domestica]
[9]
  Chip Fluorescence (max): 4.262
[10]
  Chip Fluorescence (mean): 0.2921

## SSEYQESLCIENFSAN [SeqRBM_3304]
[1]
  Chip Fluorescence (max): 1.766
[2]
  Chip Fluorescence (mean): 0.6423

## LTDAAPEVVVSKPEHN [SeqRBMlowT_7696]
[7]
  Chip Fluorescence (max): 1.26
[8]
  Chip Fluorescence (mean): 0.2646

## TFWSNPQFKITLEDPD [SeqRBMlowT_3183]
[3]
  Chip Fluorescence (max): 0.1109
[4]
  Chip Fluorescence (mean): -0.8373

## TFWTNPQYRLWIVSVD [SeqRBM_2615]
[7]
  Chip Fluorescence (max): 1.0899
[8]
  Chip Fluorescence (mean): -0.4347

## PGLYDNALGIEQFTLS [SeqRBMlowT_2874]
[9]
  Chip Fluorescence (max): 13.8972
[10]
  Chip Fluorescence (mean): 1.628

## HVSSSSDITITPTQHR [SeqRBMlowT_2715]
[7]
  Chip Fluorescence (max): 1.1425
[8]
  Chip Fluorescence (mean): -0.2145

## TFWSNPQFKIKLEDPD [SeqRBMlowT_7428]
[1]
  Chip Fluorescence (max): 1.373
[2]
  Chip Fluorescence (mean): 0.3282

## KVTTLKSVSPAIAAPE [Seqshuffled_1741]
[11]
  Chip Fluorescence (max): 0.7857
[12]
  Chip Fluorescence (mean): -0.5033

## TFWSNPQFKVSLEEPD [SeqRBMlowT_2967]
[1]
  Chip Fluorescence (max): 1.583
[2]
  Chip Fluorescence (mean): -0.5694

## TFWTNPQFKITLEEED [SeqRBMlowT_217]
[9]
  Chip Fluorescence (max): 4.393
[10]
  Chip Fluorescence (mean): 0.02338

## KKMSPPCIDVHPLDSA [SeqRBM_2282]
[5]
  Chip Fluorescence (max): 2.64
[6]
  Chip Fluorescence (mean): 0.293

## TFWTNPQYRITVTEPD [SeqRBMlowT_7465]
[11]
  Chip Fluorescence (max): 0.8889
[12]
  Chip Fluorescence (mean): -0.4265

## TFWTNPQYVITLEEPD [SeqRBMlowT_2279]
[1]
  Chip Fluorescence (max): 1.482
[2]
  Chip Fluorescence (mean): 0.5155

## TTWLVVFMIPELMKLS [Seqshuffled_9855]
[7]
  Chip Fluorescence (max): 1.271
[8]
  Chip Fluorescence (mean): 0.8684

## DRMAQDSMGWCRECLM [Seqrandom_9951]
[9]
  Chip Fluorescence (max): 3.639
[10]
  Chip Fluorescence (mean): 1.593

## SDEAGPRIVITATELP [SeqRBMlowT_4492]
[5]
  Chip Fluorescence (max): 2.835
[6]
  Chip Fluorescence (mean): 0.5943

## PFLAEQYMVVEEMTVS [Seqshuffled_9732]
[1]
  Chip Fluorescence (max): 1.48
[2]
  Chip Fluorescence (mean): -0.4167

## ASSSAPEIVVSKPEHN [SeqKCNN2_Pan_troglodytes]
[11]
  Chip Fluorescence (max): 0.501
[12]
  Chip Fluorescence (mean): -0.7597

## RAYINPFMQFIDGGRK [SeqRBMlowT_4070]
[9]
  Chip Fluorescence (max): 3.668
[10]
  Chip Fluorescence (mean): 2.003

## TFWTNPQFRLKLVDVD [SeqRBMlowT_5534]
[9]
  Chip Fluorescence (max): 3.886
[10]
  Chip Fluorescence (mean): 0.4656

## AINASPEIVVGYDELP [SeqRBM_6435]
[1]
  Chip Fluorescence (max): 1.452
[2]
  Chip Fluorescence (mean): 1.232

## RNPGQALLELKGHSAQ [SeqRBMlowT_7734]
[7]
  Chip Fluorescence (max): 1.17
[8]
  Chip Fluorescence (mean): -0.1022

## TFWTNPQFKVKLEDPD [SeqRBMlowT_4293]
[11]
  Chip Fluorescence (max): 0.7466
[12]
  Chip Fluorescence (mean): -0.6386

## PGLYENALGMESFSIS [SeqCRZ1_Ajellomyces_capsulatus]
[1]
  Chip Fluorescence (max): 1.795
[2]
  Chip Fluorescence (mean): 0.6954

## TFWTNPQFKITLTDPD [SeqRBMlowT_9027]
[7]
  Chip Fluorescence (max): 1.278
[8]
  Chip Fluorescence (mean): -0.7291

## TFWTNPQFRVKLEDPD [SeqRBMlowT_223]
[11]
  Chip Fluorescence (max): 0.479
[12]
  Chip Fluorescence (mean): -1.105

## TFWTNPQYKITLEEDD [SeqRBMlowT_9018]
[5]
  Chip Fluorescence (max): 2.666
[6]
  Chip Fluorescence (mean): -0.09775

## TFWTNPQFRIKLEDVD [SeqRBMlowT_2]
[11]
  Chip Fluorescence (max): 0.5307
[12]
  Chip Fluorescence (mean): -0.7635

## RNPGTPLLELKGHAAS [SeqRBMlowT_8729]
[3]
  Chip Fluorescence (max): -0.2859
[4]
  Chip Fluorescence (mean): -0.9089

## KAYMCPFMQFIDGGRK [SeqRBMlowT_522]
[5]
  Chip Fluorescence (max): 2.8656
[6]
  Chip Fluorescence (mean): 1.3266

## TFWANPQFRIKLEEPD [SeqRBMlowT_4612]
[3]
  Chip Fluorescence (max): 0.1586
[4]
  Chip Fluorescence (mean): -0.3624

## TFWTNPQFRLKLEDPD [SeqRBMlowT_699]
[11]
  Chip Fluorescence (max): 0.8365
[12]
  Chip Fluorescence (mean): -0.3514

## RNPGQALLTLRGHKAQ [SeqRBMlowT_5824]
[3]
  Chip Fluorescence (max): -0.7814
[4]
  Chip Fluorescence (mean): -1.225

## TFWTNPQYRITLTDVD [SeqRBMlowT_7188]
[11]
  Chip Fluorescence (max): 0.6928
[12]
  Chip Fluorescence (mean): -1.3023

## TFWTNPQYVVSLEEPD [SeqRBMlowT_5673]
[11]
  Chip Fluorescence (max): 0.9389
[12]
  Chip Fluorescence (mean): 0.02031

## RNPGQALLQLSGHKAP [SeqRBM_8761]
[3]
  Chip Fluorescence (max): 0.09132
[4]
  Chip Fluorescence (mean): -0.8885
